{"source": "patent US12144872B1", "about": "“Modified nanodelivery system and method for enhanced in vivo medical and preclinical imaging” (Florida A&M University, priority 2012, dated 2024)", "test_system": "4T1-luc tumor models", "assay": "In vivo bioluminescence/fluorescence imaging and kinetics in luciferase-expressing tumor models", "settings": "mice, 150 mg/kg luciferin solution", "method": "All the cell lines were modified for the luciferase reporter gene expression.\nTrypsinization was stopped with medium containing 10% FBS. The cells were centrifuged, and the floating cells in the supernatant were discarded. The cell pellet was resuspended in medium containing 10% FBS and mixed thoroughly. Trypan blue staining was used to determine the number of viable cells. The resuspended cells were centrifuged, and cell dilutions of 2±10^6 cells/100 μl were prepared in growth medium. The 100 μl of cell suspension was injected subcutaneously into the right flank area of each mouse. The mice were randomized into control and treatment groups when xenografts were palpable with a tumor size of 50 mm^3.\nThe orthotopic tumor model was used to mimic the cancer in humans in athymic nu/nu mice (6-week old). […] Only cell suspensions of >90% viability, as determined by trypan blue exclusion, were used. […]\nNu/Nu mice were anesthetized and tumor cells (2 million per mouse) were injected via tail vein. Only cell suspensions of >90% viability, as determined by trypan blue exclusion, were used. […]\nImaging was performed with an IVIS Spectrum (16). Bioluminescent signals were quantified using Living Image® software (Caliper Life Sciences., Alameda, CA.).\nImaging was performed with an IVIS SpectrumCT (35). Bioluminescent signals were quantified using Living Image® software (Caliper Life Sciences., Alameda, CA.)."}
{"smiles": "O=C(O)[C@H]1CSC(c2nc3ccc(O)cc3s2)=N1", "note": "[Free luciferin, luciferin]", "values": [{"measurement": "time to clearance from circulation", "value": "≤ 60", "unit": "min"}]}
